Results taken from US20130344008A1, “NONCARIOUS MATERIAL AND ANTICARIOUS AGENT CONTAINING RARE SUGAR” (priority 2006, published 2013).

What was measured:
S. mutans strain JCM5075 [1] = test: Example 1: optical density and pH of S. mutans JCM5075 cultures in BHI broth with rare sugars, with or without sucrose; format: cell-based, Streptococcus mutans; conditions: for Optical density (OD) 12 hours later: OD600; for pH change 24 hours later (in words): 1% sucrose, or 10% Xylitol+1% sucrose, or 10% fructose+1% sucrose
Description: S. mutans strains characteristically form insoluble glucan on addition of sucrose, to generate acids and reduce the pH of the culture medium, which is considered to cause decalcification of teeth on dental surface to form decayed teeth (the reason why the strains are designated bacteria causing decayed teeth). JCM 5075 of S. mutans strains and the Brain Heart Infusion (BHI) broth were used to assay the optical density (the increase of the number of the bacterial cells) and the pH change in individual rare sugar solutions with or without sucrose added. As the rare sugars, there were used D-fructose, L-fructose, D-sorbose, L-sorbose, D-psicose, L-psicose, D-tagatose and L-tagatose. The rare sugars used were supplied from the Rare Sugar Research Center, the National University Corporation Kagawa University.
The strain JCM5075 thawed from −80° C. stock was cultured for 48 hours, and was adjusted to OD 0.3. 100 μl of the resulting culture was added to each 2-ml portion of the BHI broths under individual conditions, to assay the optical density and the pH 24 hours later (observation with naked eyes and absorbance: OD600).
After collecting a part of the liquid culture and centrifuging the culture, the pH of the resulting supernatant was measured with a pH meter. The results are shown in Table 2 (0, 6, 8, 12 and 24 hours after the addition of the bacteria to the BHI broth) and FIG. 3.

[2] = tested on: S. mutans strain MT 8148 (JCM5175); test: Example 2: bacterial growth (OD 660 nm) and pH of S. mutans culture in phenol red broth with 1% test substance; format: cell-based, Streptococcus mutans; conditions: PRB broth, 37° C., 48 hours later; for OD: bacterial growth, absorbance at 660 nm
Protocol: D-Psicose and L-psicose were used to assay the actions thereof against S. mutans. D-Psicose and L-psicose were supplied from the Rare Sugar Research Center, the National University Corporation Kagawa University. The S. mutans strain MT 8148 (JCM5175) was plated in a Brain Heart Infusion broth supplemented with agar for culturing at 37° C. for 48 hours. The liquid culture was inoculated in a fresh Brain Heart Infusion broth, for culturing at 37° C. for 24 hours. The liquid culture was inoculated in a phenol red broth (PRB broth) containing a test substance at 1%, for culturing at 37° C.; the bacterial growth (absorbance at 660 nm: OD) and the pH were assayed 48 hours later. Asa control, glucose, fructose, sucrose and Xylitol were used. After culturing for a given period of time, additionally, the optical density of apart of the liquid culture was measured with an absorptiometer (OD 660 nm).

[3] = tested on: S. mutans strain MT 8148 (JCM5175); test: Example 4: cariostatic test with D-psicose and catechin, pH of culture in PRB broth; format: cell-based, Streptococcus mutans; conditions: for pH: PRB broth, 20 hours later
Protocol: A cariostatic test with D-psicose was carried out. Additionally, the effect of catechins added was also examined. D-Psicose was supplied from the Rare Sugar Research Center, the National University Corporation Kagawa University. As the catechin, Polyphenon 70A of Mitsui Norin Co., Ltd. was used. The S. mutans strain MT 8148 (JCM5175) was plated in a Brain Heart Infusion broth supplemented with agar, for culturing at 37° C. for 48 hours. Further, the resulting liquid culture was inoculated in a fresh Brain Heart Infusion broth, for culturing at 37° C. for 24 hours. The liquid preculture was inoculated in a phenol red broth (PRB broth) containing sugars and catechins at the following concentrations for culturing at 37° C.; 20 hours later, the pH was measured. As a control, sucrose was used.

[4] = tested on: S. mutans strain (JCM5075); test: Example 3: pH of S. mutans culture in BHI broth with test substance after 48-hour culturing; format: cell-based, Streptococcus mutans; conditions: BHI broth, after 48-hour culturing
Protocol: Allitol and D-sorbose were used to assay the actions thereof against S. mutans. Allitol and D-sorbose were supplied from the Rare Sugar Research Center, the National University Corporation Kagawa University. The S. mutans strain (JCM5075) was plated in a Brain Heart Infusion broth containing a 10% test substance, to measure the pH of the liquid culture after 48-hour culturing. As a control, 1% sucrose and 10% Xylitol were used.

caries = conditions: cited from earlier work
S. mutans strain JCM5075 [5] = test: Reference Example: formation of insoluble glucan with S. mutans, naked-eye observation; format: cell-based, Streptococcus mutans; conditions: sucrose added, BHI broth, anaerobic conditions, FIG. 1
Protocol: S. mutans strains characteristically form insoluble glucan on addition of sucrose, to reduce the pH of the culture medium, which is considered to cause decalcification of dental surface to form decayed teeth (the reason why the strains are designated bacteria causing decayed teeth). The S. mutans strain JCM5075 was plated in a Brain Heart Infusion (BHI) broth, for culturing under anaerobic conditions, to visually determine the bacterial growth (potency for forming insoluble glucan: optical density) with naked eyes.

[6] = 5% test substance + 1% sucrose, BHI broth
[7] = 5% test substance, no sucrose, BHI broth
[8] = 10% test substance + 1% sucrose, BHI broth
[9] = 10% test substance, no sucrose, BHI broth

Row | SMILES | pH 0 hour later (S. mutans strain JCM5075 [1]; [6]) | pH 6 hours later (S. mutans strain JCM5075 [1]; [6]) | pH 8 hours later (S. mutans strain JCM5075 [1]; [6]) | pH 12 hours later (S. mutans strain JCM5075 [1]; [6]) | pH 24 hours later (S. mutans strain JCM5075 [1]; [6]) | pH 0 hour later (S. mutans strain JCM5075 [1]; [7]) | pH 6 hours later (S. mutans strain JCM5075 [1]; [7]) | pH 8 hours later (S. mutans strain JCM5075 [1]; [7]) | pH 12 hours later (S. mutans strain JCM5075 [1]; [7]) | pH 24 hours later (S. mutans strain JCM5075 [1]; [7]) | pH 0 hour later (S. mutans strain JCM5075 [1]; [8]) | pH 6 hours later (S. mutans strain JCM5075 [1]; [8]) | pH 8 hours later (S. mutans strain JCM5075 [1]; [8]) | pH 12 hours later (S. mutans strain JCM5075 [1]; [8]) | pH 24 hours later (S. mutans strain JCM5075 [1]; [8]) | Optical density (OD) 12 hours later (S. mutans strain JCM5075 [1]; 10% test substance, BHI broth) | pH 0 hour later (S. mutans strain JCM5075 [1]; [9]) | pH 6 hours later (S. mutans strain JCM5075 [1]; [9]) | pH 8 hours later (S. mutans strain JCM5075 [1]; [9]) | pH 12 hours later (S. mutans strain JCM5075 [1]; [9]) | other results
1 | O=C(CO)[C@H](O)[C@H](O)[C@H](O)CO [D-psicose] | 7.4 | 7.3 | 7.2 | 7.2 | 6.4 | 7.4 | 7.3 | 7.2 | 7.2 | 7.0 | 7.3 | 7.2 | 7.2 | 7.2 | 7.1 | 0.158 | 7.3 | 7.2 | 7.2 | 7.2 | pH 24 hours later (S. mutans strain JCM5075 [1]; [9]): 7.2; suppression of the pH reduction (S. mutans strain JCM5075 [1]; 24 hours later, also with 1% sucrose addition, FIG. 3): most highly suppressed the pH reduction; suppression of OD increase compared with no addition (S. mutans strain JCM5075 [1]; BHI broth, FIG. 2 / Table 1): suppression of OD increase was observed; pH [2]: 5.9; OD [2]: 0.02; pH ([3]; 3.3% test substance + 0.25% sucrose): 4.4; pH ([3]; 5.0% test substance + 0.25% sucrose): 5.5; action of suppressing the pH reduction in a culture medium with addition of sucrose ([3]; D-psicose at a concentration of 5%, 0.25% sucrose): exerted an action of suppressing the pH reduction
2 | OC[C@@H](O)[C@H](O)[C@@H](O)CO [Xylitol, reference compound] | 7.3 | 7.2 | 7.2 | 7.1 | 4.9 | 7.3 | 7.2 | 7.2 | 7.2 | 6.4 | 7.3 | 7.2 | 7.2 | 7.2 | 5.1 | 0.046 | 7.4 | 7.2 | 7.2 | 7.2 | pH change 24 hours later (in words) (S. mutans strain JCM5075 [1]; FIG. 3): highly inclined to acidity; pH 24 hours later (S. mutans strain JCM5075 [1]; [9]): 6.5; pH ([4]; 10% test substance): 6.0
3 | Oc1cc(O)c2c(c1)O[C@H](c1cc(O)c(O)c(O)c1)[C@@H](O)C2 [gallocatechin] | – | – | – | – | – | – | – | – | – | – | – | – | – | – | – | – | – | – | – | – | effective concentration against caries in the test system (caries): 125 µg/mL
4 | OC[C@H]1O[C@@](CO)(O[C@H]2O[C@H](CO)[C@@H](O)[C@H](O)[C@H]2O)[C@@H](O)[C@@H]1O [sucrose, reference compound] | – | – | – | – | – | – | – | – | – | – | – | – | – | – | – | – | – | – | – | – | pH 0 hour later (S. mutans strain JCM5075 [1]; 1% sucrose alone, BHI broth): 7.4; pH 6 hours later (S. mutans strain JCM5075 [1]; 1% sucrose alone, BHI broth): 7.2; pH 8 hours later (S. mutans strain JCM5075 [1]; 1% sucrose alone, BHI broth): 7.2; pH 12 hours later (S. mutans strain JCM5075 [1]; 1% sucrose alone, BHI broth): 6.7; pH 24 hours later (S. mutans strain JCM5075 [1]; 1% sucrose alone, BHI broth): 4.7; pH change 24 hours later (in words) (S. mutans strain JCM5075 [1]; FIG. 3): highly inclined to acidity; Optical density (OD) 12 hours later (S. mutans strain JCM5075 [1]; 1% test substance, BHI broth): 0.060; precipitation of bacterial masses (insoluble glucan) under observation with naked eyes (S. mutans strain JCM5075 [1]; addition of 1% sucrose, addition of 10% D-fructose, 24 hours later): caused the precipitation of bacterial masses (insoluble glucan); pH [2]: 3.9; OD [2]: 0.14; pH ([4]; 1% sucrose (control)): 4.0; pH ([3]; 0.25% sucrose alone, 37° C.): 4.5; formation of insoluble glucan observed with naked eyes (S. mutans strain JCM5075 [5]): formed insoluble glucan
